Like-named read-outs stand apart in the source and are kept apart here.
Legend:
[1] = tested on: HIV-1 Y181C mutant strain; test: Anti-HIV activity in MT-4 cells (MTT method), Y181C; type: cell-based; conditions: Human immunodeficiency virus 1, MT4, read-out: EC50 Y181C
Description: (§1) All the target compounds were first evaluated for their antiviral activity against HIV-1 wild-type (WT) strain (IIIB) and the double-mutant strain K103N+Y181C (RES056) in the MT-4 cell line, using the MTT method. The potent inhibitors were selected to assess their efficacy against other strains resistant to NNRTIs, including L100I, K103N, Y181C, Y188L, E138K and the double-mutant strain F227L+V106A. The approved drugs NVP, EFV and ETR were selected as reference drugs. The biological evaluation results of the test compounds, presented as EC50 (anti-HIV potency), CC50 (cytotoxicity) and SI (selectivity index, CC50/EC50 ratio), are summarized in Table 1 and Table 2.
(§2) The antiviral potential and cytotoxic effects of the target compounds were assessed using the MTT assay in MT-4 cells, following established protocols. The HIV-1 (IIIB) strain, single mutant strains (L100I, K103N, Y181C, Y188L and E138K), double mutant strains (F227L + V106A and K103N + Y181C) and MT-4 cells were provided by the Rega Institute of Medicine at the University of Leuven, Belgium. These viral strains were propagated in MT-4 cells. The MT-4 cells were cultured in RPMI-1640 medium supplemented with 20 mM HEPES buffer (Life Technologies, Grand Island, NY, USA), 10% (v/v) heat-inactivated fetal calf serum (FCS), 2 mM L-glutamine, 0.1% sodium bicarbonate, and 20 μg/mL gentamicin. Cultures were maintained at 37 °C in a 5% CO2 atmosphere. The specific experimental procedures are detailed below.
(§3) Initially, concentrated solutions of the test compounds were prepared at 10-fold the final desired concentration and added to triplicate wells in 25 µL aliquots to assess their impacts on both mock and HIV-infected MT-4 cells. Using a Biomek 3000 robot, these were diluted in a 96-well flat-bottomed microplate by mixing with medium, creating a series of 5-fold steps down in concentration. Each test included control groups of untreated infected and mock-infected cells to establish baselines for comparison. We introduced HIV-1 strains, both wild-type (IIIB) and drug-resistant variants harboring mutations L100I, K103N, Y181C, Y188L, E138K and F227L + V106A and the double mutant K103N + Y181C (RES056), at concentrations of 100–300 CCID50, into their respective wells. These strains served to mimic both typical and resistant infections. Additionally, mock-infected wells received an equal volume of culture medium to assess the compounds’ impacts on uninfected cells, thereby determining cytotoxicity. MT-4 cells in the exponential growth phase were pelleted by centrifugation at 1000 rpm for 5 min, after which the supernatant was removed. The cells were resuspended to a density of 6 × 10^5 cells/mL, and 50 µL of this suspension was added to each well. Post-infection, on the fifth day, cell viability in both mock and infected conditions was measured via the MTT assay using a spectrophotometer. The CC50 was identified as the concentration of the compound that caused a 50% reduction in the viability of the mock-infected cells, indicating cytotoxicity. Conversely, the EC50 represented the concentration that provided 50% protection against viral cytopathic effects in infected cells, signifying antiviral potency.

[2] = Cytotoxicity in mock-infected MT-4 cells (MTT method); type: cell-based; conditions: human, CC50
Procedure: as §2, §3

[3] = tested on: HIV-1 double-mutant strain F227L+V106A; test: Anti-HIV activity in MT-4 cells (MTT method), F227L+V106A; type: cell-based; conditions: Human immunodeficiency virus 1, MT4, read-out: EC50 F227L/V106A
Description: as §1, §2, §3

[4] = tested on: HIV-1 double-mutant strain K103N+Y181C (RES056); test: microbe, parasite or virus in culture; type: cell-based; conditions: for EC50: Human immunodeficiency virus 1, MT4, read-out: EC50 RES056; for SI RES056: selectivity index, ratio CC50/EC50, RES056
Procedure: (§4) All the target compounds were first evaluated for their antiviral activity against HIV-1 wild-type (WT) strain (IIIB) and the double-mutant strain K103N+Y181C (RES056) in the MT-4 cell line, using the MTT method.
(§5) The antiviral potential and cytotoxic effects of the target compounds were assessed using the MTT assay in MT-4 cells, following established protocols. The HIV-1 (IIIB) strain, single mutant strains (L100I, K103N, Y181C, Y188L and E138K), double mutant strains (F227L + V106A and K103N + Y181C) and MT-4 cells were provided by the Rega Institute of Medicine at the University of Leuven, Belgium. These viral strains were propagated in MT-4 cells. […] The specific experimental procedures are detailed below.
as §3, with “We introduced HIV-1 strains, both wild-type (IIIB) and drug-resistant variants harboring mutations L100I, K103N, Y181C, Y188L, E138K and F227L + V106A and the double mutant K103N + Y181C (RES056), at concentrations of 100–300 CCID50, into their respective wells.” left out, “spectrophotometer.” for “spectrophotometer. The CC50 was identified as the concentration of the compound that caused a 50% reduction in the viability of the mock-infected cells, indicating cytotoxicity. Conversely, the EC50 represented the concentration that provided 50% protection against viral cytopathic effects in infected cells, signifying antiviral potency.”

[5] = tested on: HIV-1 Y188L mutant strain; test: Anti-HIV activity in MT-4 cells (MTT method), Y188L; type: cell-based; conditions: Human immunodeficiency virus 1, MT4, read-out: EC50 Y188L
Description: as §1, §2, §3

[6] = tested on: HIV-1 K103N mutant strain; test: Anti-HIV activity in MT-4 cells (MTT method), K103N; type: cell-based; conditions: Human immunodeficiency virus 1, MT4, read-out: EC50 K103N
Description: as §1, §2, §3

[7] = tested on: HIV-1 wild-type (WT) strain (IIIB); test: Anti-HIV activity in MT-4 cells (MTT method), HIV-1 IIIB; type: cell-based; conditions: for EC50: Human immunodeficiency virus 1, IIIB, MT4, read-out: EC50 IIIB; for SI IIIB: selectivity index, ratio CC50/EC50, IIIB
Procedure: as §4, §5
as §3, with “We introduced HIV-1 strains, both wild-type (IIIB) and drug-resistant variants harboring mutations L100I, K103N, Y181C, Y188L, E138K and F227L + V106A and the double mutant K103N + Y181C (RES056), at concentrations of 100–300 CCID50, into their respective wells.” left out, “spectrophotometer.” for “spectrophotometer. The CC50 was identified as the concentration of the compound that caused a 50% reduction in the viability of the mock-infected cells, indicating cytotoxicity. Conversely, the EC50 represented the concentration that provided 50% protection against viral cytopathic effects in infected cells, signifying antiviral potency.”

WT HIV-1 RT = molecular target: T1, WT HIV-1 RT (Human immunodeficiency virus type 1 group M subtype B, UniProt P03366); test: HIV-1 RT inhibition assay (Roche kit, ELISA); type: biochemical
T1 construct: viral nucleotides (dNTPs) and the HIV-1 RT enzyme in an incubation buffer; purchased Roche
Description: An assay kit for HIV-1 reverse transcriptase (RT) from Roche was utilized to assess RT inhibition. The kit provided all necessary components for the RT reaction, and the enzyme-linked immunosorbent assay (ELISA) methodology for the inhibition assay was executed according to the kit’s instructions. […] Unbound dNTPs were washed away, and an anti-[…] (DIG)-POD working solution was introduced. […] Excess anti-DIG-POD was removed, and a peroxidase substrate (ABTS) solution was applied to the MTPs. […] The percentage of the inhibitory activity of the RT inhibitors was calculated by formula, as given below:
% Inhibition = [O.D. value with RT but without inhibitors − O.D. value with RT and inhibitors]/[O.D. value with RT […] − O.D. value without RT and inhibitors].

[8] = tested on: HIV-1 E138K mutant strain; test: Anti-HIV activity in MT-4 cells (MTT method), E138K; type: cell-based; conditions: for EC50: Human immunodeficiency virus 1, MT4, read-out: EC50 E138K
Description: as §1, §2, §3

[9] = tested on: HIV-1 L100I mutant strain; test: Anti-HIV activity in MT-4 cells (MTT method), L100I; type: cell-based; conditions: Human immunodeficiency virus 1, MT4, read-out: EC50 L100I
Description: as §1, §2, §3

MT-4 cells = test: Cytotoxicity in mock-infected MT-4 cells (MTT method); type: cell-based; conditions: human, 5 days
Procedure: as §2, §3

[10] = tested on: HIV-1 wild-type (WT) and a panel of NNRTI-resistant strains; test: Anti-HIV activity in MT-4 cells (MTT method), WT and panel of NNRTI-resistant strains; type: cell-based
Description: as §1
The antiviral potential and cytotoxic effects of the target compounds were assessed using the MTT assay in MT-4 cells, following established protocols. […]
Initially, concentrated solutions of the test compounds were prepared at 10-fold the final desired concentration and added to triplicate wells in 25 µL aliquots to assess their impacts on both mock and HIV-infected MT-4 cells. […] Post-infection, on the fifth day, cell viability in both mock and infected conditions was measured via the MTT assay using a spectrophotometer. […]

SMILES | melting point | EC50 [1] | CC50 at 5 days [2] | EC50 [3] | EC50 [4] | SI RES056 [4] | EC50 [5] | EC50 [6] | EC50 [7] | SI IIIB [7] | IC50 (WT HIV-1 RT) | EC50 [8] | EC50 [9] | CC50 (MT-4 cells) | EC50 ([10]; Human immunodeficiency virus 1, MT4, read-out: EC50 values against HIV-1 WT and a panel of NNRTI-resistant strains, range over strains, MT-4 cells) | EC50 ([10]; read-out: EC50 values against HIV-1 WT and a panel of NNRTI-resistant strains, range over strains, MT-4 cells) | fold superior to NVP, E138K ([8]; ratio of EC50 values against E138K, versus NVP)
Cc1cc(C#N)cc(C)c1Oc1nc(Nc2ccc(NC(=O)[C@@H](N)Cc3ccccc3)cc2)nc2ccsc12 [5h] | 203 to 206 °C | 2720 ± 422 nM | 23700 ± 521 nM | 2110 ± 293 nM | 8470 ± 483 nM | 3 | 2390 ± 352 nM | 73 ± 16 nM | 55 ± 12 nM | 429 | 1540 ± 119 nM | 679 ± 569 nM | 1830 ± 208 nM | – | – | – | –
Cc1cc(C#N)cc(C)c1Oc1nc(Nc2ccc(NC(=O)[C@@H](N)C(C)C)cc2)nc2ccsc12 [5i] | 184 to 187 °C | > 6540 nM | 6540 ± 1340 nM | 3030 ± 1760 nM | ≥ 6620 nM | ≤1 | 6910 ± 944 nM | 45 ± 10 nM | 42 ± 8 nM | 157 | 1350 ± 148 nM | 247 ± 107 nM | 1200 ± 218 nM | – | – | – | –
Cc1cc(C#N)cc(C)c1Oc1nc(Nc2ccc(NC(=O)C3CCCN3)cc2)nc2ccsc12 (stereo not shown) [5k] | 227 to 230 °C | 1850 ± 621 nM | 27900 nM | 1760 ± 686 nM | 7530 ± 280 nM | 4 | 2360 ± 57 nM | 31 ± 4 nM | 54 ± 18 nM | 513 | 1120 ± 74 nM | 94 ± 22 nM | 601 ± 261 nM | 27900 ± 910 nM | 42 to 7530 nM | 31 to 2360 nM | ~1.9 fold
